Experiment [1] addresses T1, SARS-CoV-2 PLpro (nsp3 1564–1878) (Severe acute respiratory syndrome coronavirus 2, UniProt P0DTD1). In words: biochemical. Also on record: FRET-quenched peptide (Pro3) cleavage by PLpro, 10 min pre-incubation, slope over 20 min, normalised to no-compound control. To be noted: low concentration screen, read-out: % of control remaining.
In experiment [2] the target is T1, SARS-CoV-2 PLpro (nsp3 1564–1878). In words: biochemical. Also on record: FRET-quenched peptide (Pro3) cleavage by PLpro, 10 min pre-incubation, slope over 20 min, normalised to no-compound control. To be noted: high concentration screen, read-out: % of control remaining.

Structures can show the parent of a compound that is named as a salt. Where two headings read alike, the source gives them in different places.

32 compounds from paper PMC8286840, “Identifying SARS-CoV-2 antiviral compounds by screening for small molecule inhibitors of Nsp3 papain-like protease” (Biochemical Journal, 2021) can be followed below.

On to `COC(=O)[C@@H](N)CCCNC(=N)N[N+](=O)[O-]` [NG-Nitro-L-arginine methyl ester hydrochloride], for which the remaining activity at 1.25 µM in experiment [1] (Well no.=1001) worked out at 99.6%. The remaining activity at 3.75 µM in experiment [2] (Well no.=1001) came out at 98.3%.
Consider `CN(C)CCSSCCNC(=O)C1CCN(C(=O)CSc2ccc(Cl)cc2)CC1` [6H05 (trifluoroacetate)], for which the remaining activity at 1.25 µM in experiment [1] (Well no.=6658) was 103%. Moreover, in experiment [2] (Well no.=6658), the remaining activity at 3.75 µM amounted to 106%.
In the case of `COc1cc(/C=C/C(=O)O)ccc1O` [Ferulic acid (sodium)], the remaining activity at 1.25 µM in experiment [1] (Well no.=8535) was 107%. Besides, the remaining activity at 3.75 µM in experiment [2] (Well no.=8535) turned out to be 106%.
Consider `CC[C@H]1CN2CCc3cc(OC)c(OC)cc3[C@@H]2C[C@@H]1C[C@H]1NCCc2cc(OC)c(OC)cc21` [Emetine dihydrochloride hydrate], for which the remaining activity at 1.25 µM in experiment [1] (Well no.=646) was 104%. The remaining activity at 3.75 µM in experiment [2] (Well no.=646) is 103%.
With `COC(=O)c1ccc2c(c1)nc(NC(=O)c1ccccc1)n2CCCc1ccccc1` [BRD4770], the remaining activity at 1.25 µM in experiment [1] (Well no.=5781) was found to be 97%. Besides, the remaining activity at 3.75 µM in experiment [2] (Well no.=5781) is 96.3%.
For `O=C1N(c2ccccc2)c2ccccc2C1(Cc1ccncc1)Cc1ccncc1` [Linopirdine], the remaining activity at 1.25 µM in experiment [1] (Well no.=822) came out at 104%. Moreover, the remaining activity at 3.75 µM in experiment [2] (Well no.=822) is 105%.
For `COc1ccc2c(c1)c(CC(=O)O)c(C)n2Cc1ccc(Cl)cc1` [1-(4-Chlorobenzyl)-5-methoxy-2-methylindole-3-acetic acid], in experiment [1] (Well no.=379), the remaining activity at 1.25 µM is 99.8%. The remaining activity at 3.75 µM in experiment [2] (Well no.=379) was determined as 99.4%.
On to `O=P(O)(O)C(O)(Cc1cccnc1)P(=O)(O)O` [Risedronic acid], for which, in experiment [1] (Well no.=1989), the remaining activity at 1.25 µM was found to be 97.8%. In experiment [2] (Well no.=1989), the remaining activity at 3.75 µM turned out to be 96.9%.
In the case of `N[C@@H](Cn1oc(=O)[nH]c1=O)C(=O)O` [(+)-Quisqualic acid], the remaining activity at 1.25 µM in experiment [1] (Well no.=1507) came to 96.2%. Also, the remaining activity at 3.75 µM in experiment [2] (Well no.=1507) is 97.1%.
For the compound `CC(O)C(O)C1CNc2nc(N)[nH]c(=O)c2N1` [(6R)-5,6,7,8-Tetrahydro-L-biopterin hydrochloride], in experiment [1] (Well no.=1383), the remaining activity at 1.25 µM stood at 101%. Moreover, in experiment [2] (Well no.=1383), the remaining activity at 3.75 µM was found to be 102%.
Regarding `CCCC(CCC)C(=O)O` [Valproic acid], in experiment [1] (Well no.=1758), the remaining activity at 1.25 µM was 98.8%. The remaining activity at 3.75 µM in experiment [2] (Well no.=1758) stood at 100%.
As for `CCOCc1cc(OC)c(-c2ccc(C[C@H](NC(=O)c3c(F)cccc3F)C(=O)O)cc2)c(OC)c1` [Firategrast], the remaining activity at 1.25 µM in experiment [1] (Well no.=7930) turned out to be 103%. For the same compound, the remaining activity at 3.75 µM in experiment [2] (Well no.=7930) came out at 99%.
With `CCOC(=O)CC(=O)N1CCSC1COc1ccccc1OC` (stereo not drawn) [Moguisteine], the remaining activity at 1.25 µM in experiment [1] (Well no.=4931) amounted to 98.7%. Besides, the remaining activity at 3.75 µM in experiment [2] (Well no.=4931) is 95.6%.
Take `CC[C@H](CO)Nc1nc(NCc2ccccc2O)c2ncn(C(C)C)c2n1` [Olomoucine II]: the remaining activity at 1.25 µM in experiment [1] (Well no.=2523) is 99.8%. Moreover, in experiment [2] (Well no.=2523), the remaining activity at 3.75 µM came to 102%.
As to `O=C1NC(=O)c2c1c1c3ccccc3[nH]c1c1[nH]c3cc(Br)ccc3c21` [Cdk4 Inhibitor], the remaining activity at 1.25 µM in experiment [1] (Well no.=2404) is 99.9%. Moreover, the remaining activity at 3.75 µM in experiment [2] (Well no.=2404) is 99.9%.
For the compound `CC(C)(C(=O)O)c1ccc(C(O)CCCN2CCC(C(O)(c3ccccc3)c3ccccc3)CC2)cc1` (stereo not drawn) [Fexofenadine (hydrochloride)], the remaining activity at 1.25 µM in experiment [1] (Well no.=6619) came to 104%. Besides, the remaining activity at 3.75 µM in experiment [2] (Well no.=6619) turned out to be 105%.
Take `NC/C=C/C(=O)O` [(E)-4-amino-2-butenoic acid]: in experiment [1] (Well no.=1283), the remaining activity at 1.25 µM was 103%. Further, the remaining activity at 3.75 µM in experiment [2] (Well no.=1283) was determined as 101%.
As to `CCCCC[C@H](O)/C=C/[C@H]1C=CC(=O)[C@@H]1C/C=C\CCCC(=O)O` [Prostaglandin A2], the remaining activity at 1.25 µM in experiment [1] (Well no.=4467) is 100%. The remaining activity at 3.75 µM in experiment [2] (Well no.=4467) was found to be 96.3%.
With `CCc1ccn2ccnc2c1N1CCCN([C@@H](CC(N)=O)C2CCN(C(=O)[C@H]3C[C@@H]4CC[C@H]3O4)CC2)CC1` [CXCR7 modulator 2], in experiment [1] (Well no.=8557), the remaining activity at 1.25 µM was found to be 112%. The remaining activity at 3.75 µM in experiment [2] (Well no.=8557) is 108%.
`CNC(=O)[C@H]1O[C@@H](n2cnc3c(N)ncnc32)[C@H](O)[C@@H]1O` [5'-N-Methyl carboxamidoadenosine]: in experiment [1] (Well no.=14), the remaining activity at 1.25 µM amounted to 101%. Moreover, the remaining activity at 3.75 µM in experiment [2] (Well no.=14) is 98%.
Take `O=C1CC[C@@]2(O)[C@H]3Cc4ccc(O)c5c4[C@@]2(CCN3CC2CC2)[C@H]1O5` [Naltrexone.HCl]: the remaining activity at 1.25 µM in experiment [1] (Well no.=1883) is 88.3%. For the same compound, the remaining activity at 3.75 µM in experiment [2] (Well no.=1883) was 92.8%.
Regarding `CC(C)(C)NCC(O)c1ccc(O)cc1Cl` (stereo not drawn) [HOKU-81], in experiment [1] (Well no.=8051), the remaining activity at 1.25 µM was 93%. In addition, the remaining activity at 3.75 µM in experiment [2] (Well no.=8051) came to 96.3%.
As to `Cc1ccc(-c2nc(N)nc3c2nnn3Cc2cccc(CO[C@H]3CCOC3)n2)o1` [CPI-444], in experiment [1] (Well no.=8549), the remaining activity at 1.25 µM stood at 105%. Also, in experiment [2] (Well no.=8549), the remaining activity at 3.75 µM came to 97%.
On to `Cn1c(=O)c(F)c(Nc2ccc(I)cc2F)c2c(=O)n(C[C@@H](O)CO)cnc21` [TAK-733], for which the remaining activity at 1.25 µM in experiment [1] (Well no.=4954) is 101%. Besides, the remaining activity at 3.75 µM in experiment [2] (Well no.=4954) was found to be 97.8%.
With `OC[C@@H]1CCCN2CCCC[C@H]12` [Lupinine], the remaining activity at 1.25 µM in experiment [1] (Well no.=3609) came to 104%. In addition, the remaining activity at 3.75 µM in experiment [2] (Well no.=3609) turned out to be 107%.
Consider `NC(=O)Cc1cccc(C(=O)c2ccccc2)c1N` [Nepafenac], for which the remaining activity at 1.25 µM in experiment [1] (Well no.=4761) amounted to 103%. Besides, the remaining activity at 3.75 µM in experiment [2] (Well no.=4761) was found to be 104%.
Regarding `Cc1cn2cc(C(=O)N(C)CCO)cc(N[C@@H]3CCOc4cccc(C)c43)c2n1` [PF-03716556], the remaining activity at 1.25 µM in experiment [1] (Well no.=6006) was found to be 97.5%. The remaining activity at 3.75 µM in experiment [2] (Well no.=6006) worked out at 96%.
Turning to `OC(CCN1CCCCC1)(c1ccccc1)C1CCCCC1` (stereo not drawn) [Trihexyphenidyl (hydrochloride)], the remaining activity at 1.25 µM in experiment [1] (Well no.=6375) was found to be 105%. The remaining activity at 3.75 µM in experiment [2] (Well no.=6375) was 105%.
On to `COc1cc(C(=O)O)ccc1NC(=O)[C@@H]1N[C@@H](CC(C)(C)C)[C@](C#N)(c2ccc(Cl)cc2F)[C@H]1c1cccc(Cl)c1F` [Idasanutlin], for which the results for the remaining activity at 1.25 µM in experiment [1] (Well no.=7114) and in experiment [1] (Well no.=7554) were 101% and 92.9%, respectively. Moreover, the remaining activity at 3.75 µM in experiment [2] (Well no.=7114) was 101%; in experiment [2] (Well no.=7554), 93.9%.
Turning to `c1ccc([C@H]2CN3CCSC3=N2)cc1` [Levamisole], the remaining activity at 1.25 µM in experiment [1] (Well no.=2260) came out at 97.8%. Also, the remaining activity at 3.75 µM in experiment [2] (Well no.=2260) was 94.2%.
`O=C(O)c1cc(O)c2ccc(Cl)cc2n1` [7-Chlorokynurenic acid]: in experiment [1] (Well no.=581), the remaining activity at 1.25 µM was 104%. Moreover, in experiment [2] (Well no.=581), the remaining activity at 3.75 µM came to 103%.
In the case of `CC(C)(O)c1ccccc1CC[C@@H](SCC1(CC(=O)O)CC1)c1cccc(/C=C/c2ccc3ccc(Cl)cc3n2)c1` [Montelukast (sodium)], in experiment [1] (Well no.=6325), the remaining activity at 1.25 µM was 105%. Also, in experiment [2] (Well no.=6325), the remaining activity at 3.75 µM worked out at 98%.
